Measured values from US10946074B2, “GLP-1 derivatives and uses thereof” (Novo Nordisk A/S, priority 2016, dated 2021).

Molecular target: T1, DPP-IV (Homo sapiens, UniProt P27487)
T1 construct: purchased R & D systems
Experiment: In vitro DPP-IV stability (incubation with DPP-IV, LC-MS of non-degraded peptide)
Type: in vitro ADME
Conditions: 10 μM peptide, DPP-IV 2 μg/ml, 37° C., samples up to 180 min
Procedure: The peptides are incubated in vitro in buffer with DPP-IV, samples are taken at regular intervals, the DPP-IV enzyme is inactivated to stop further degradation, and the amount of non-degraded peptide in the samples is determined using LC-MS.
Buffer A is a HEPES buffer (Gibco by Life Science, NY, USA) to which 0.005% (v/v) Tween20® Sigma-Aldrich, USA) and 0.001% (w/v) BSA (Sigma-Aldrich, USA) has been added and pH was adjusted to 7.4.
LC-MS was performed on a setup consisting of Waters Acquity UPLC system and Maxis 4G from Bruker Daltonics. […] Gradient: Linear 5%-70% mobile phase B during 8 min at 0.3 ml/min. MS was conducted in positive ionisation mode by electrospray ionisation from m/z ionisation mode and scan from m/z 300-1800.
The reactions were terminated by addition of 6 volumes of ethanol containing 1% (v/v) TFA (Biosolve BV, The Netherlands) and internal standard. The samples were analysed by LC-MS for the respective non-degraded peptide. Data was plotted according to 1st order kinetics (by GraphPad Prism) and the half-lives (T1/2) were calculated by the software and reported in minutes.

T1 sequence (P27487 whole entry, species assumed): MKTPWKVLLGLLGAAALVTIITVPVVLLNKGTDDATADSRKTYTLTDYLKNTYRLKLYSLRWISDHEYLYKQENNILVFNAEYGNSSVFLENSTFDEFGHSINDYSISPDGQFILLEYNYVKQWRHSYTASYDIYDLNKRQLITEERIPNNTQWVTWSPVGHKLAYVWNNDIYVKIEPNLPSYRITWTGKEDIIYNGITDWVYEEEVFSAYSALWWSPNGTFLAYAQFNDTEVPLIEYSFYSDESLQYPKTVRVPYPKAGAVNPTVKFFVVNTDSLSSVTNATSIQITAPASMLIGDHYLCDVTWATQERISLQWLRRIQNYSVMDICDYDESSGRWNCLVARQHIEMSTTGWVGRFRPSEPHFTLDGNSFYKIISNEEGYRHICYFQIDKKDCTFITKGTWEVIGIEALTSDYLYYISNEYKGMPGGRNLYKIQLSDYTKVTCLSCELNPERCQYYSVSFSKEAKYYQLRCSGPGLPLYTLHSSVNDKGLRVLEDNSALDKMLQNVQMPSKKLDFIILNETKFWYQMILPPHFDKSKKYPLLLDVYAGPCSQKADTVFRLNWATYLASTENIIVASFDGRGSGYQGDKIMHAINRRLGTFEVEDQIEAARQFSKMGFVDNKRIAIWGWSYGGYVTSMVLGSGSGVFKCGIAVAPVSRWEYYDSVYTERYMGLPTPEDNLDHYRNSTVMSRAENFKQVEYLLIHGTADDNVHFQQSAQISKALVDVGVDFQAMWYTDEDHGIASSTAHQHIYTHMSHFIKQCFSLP

With `CC[C@H](C)[C@H](NC(=O)[C@H](Cc1ccccc1)NC(=O)[C@H](CCC(=O)O)NC(=O)[C@H](CCCCN)NC(=O)[C@H](C)NC(=O)[C@H](C)NC(=O)[C@H](CCC(N)=O)NC(=O)CNC(=O)[C@H](CCC(=O)O)NC(=O)[C@H](CC(C)C)NC(=O)[C@H](Cc1ccc(O)cc1)NC(=O)[C@H](CO)NC(=O)[C@H](CO)NC(=O)[C@@H](NC(=O)[C@H](CC(=O)O)NC(=O)[C@H](CO)NC(=O)[C@@H](NC(=O)[C@H](Cc1ccccc1)NC(=O)[C@@H](NC(=O)CNC(=O)[C@H](CCC(=O)O)NC(=O)[C@H](Cc1c[nH]c2ccccc12)NC(=O)[C@@H](N)Cc1c[nH]cn1)[C@@H](C)O)[C@@H](C)O)C(C)C)C(=O)N[C@@H](C)C(=O)N[C@@H](Cc1c[nH]c2ccccc12)C(=O)N[C@@H](CC(C)C)C(=O)N[C@H](C(=O)N[C@@H](CCCCN)C(=O)NCC(=O)N[C@@H](CCCNC(=N)N)C(=O)NCC(=O)O)C(C)C` [Example D, [Trp8]-GLP-1-(7-37)-Peptide] the “degradation by DPP-IV in vitro (in words)” value was “no degradation at all was observed”.
